Reference: ChEMBL document CHEMBL1201862, “PubChem BioAssay data set” (2004)
“And” between values parts separate entries of the source, which are not always exact repeats. Equal values may be shown once.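 1) Cells in 96-well plates. 2) Compound, 48 h, 5 concentrations. 3) Linear interpolation between surrounding doses. 4) Unreached endpoint = highest concentration. GI50: concentration for 50% inhibition of growth.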 The source made the active and inactive calls. No stated cut-off is given here; in the data, active = GI50 up to about 1.1 µM and inactive = higher. *1 amine or outer side, *2 acyl side, *3 side chain or, on linkers, in order; H or OH if unused. Where a SMILES comes first, the peptide text is derived from it. [ ]: non-standard residue; d: D form. The star is where a group is joined. ξ: configuration not given here. X53 = CC(C)C[C@H](N[*:1])C1=N[C@H](C(=O)[*:2])CS1; Ile(3ξ) = CCC(C)[C@H](N)C(=O)O; Allyl(1,1-Me2) = C=CC(C)(C)*

Legend:
Experiment in all cases: NCI anticancer screen, dose series, 48 h
MOLT-4 = system: MOLT-4
HCT-15 = system: HCT-15
A549 = system: A549
RXF 393 = system: RXF 393
DU-145 = system: DU-145
SK-MEL-5 = system: SK-MEL-5
A498 = system: A498
SNB-19 = system: SNB-19
CAKI-1 = system: CAKI-1
NCI/ADR-RES = system: NCI/ADR-RES
SK-MEL-28 = system: SK-MEL-28
NCI-H460 = system: NCI-H460
HOP-62 = system: HOP-62
MDA-MB-231 = system: MDA-MB-231
NCI-H226 = system: NCI-H226
NCI-H23 = system: NCI-H23
SK-OV-3 = system: SK-OV-3
MDA-MB-435 = system: MDA-MB-435
OVCAR-8 = system: OVCAR-8
M14 = system: M14

Row | SMILES | GI50 (MOLT-4) | GI50 (HCT-15) [µM] | GI50 (A549) | GI50 (RXF 393) | GI50 (DU-145) | GI50 (SK-MEL-5) | GI50 (A498) | GI50 (SNB-19) | GI50 (CAKI-1) | GI50 (NCI/ADR-RES) | GI50 (SK-MEL-28) | GI50 (NCI-H460) | GI50 (HOP-62) | GI50 (MDA-MB-231) | GI50 (NCI-H226) | GI50 (NCI-H23) | GI50 (SK-OV-3) | GI50 (MDA-MB-435) | GI50 (OVCAR-8) | GI50 (M14)
1 | O=C1NC(=S)N(c2ccccc2)C1=O | > 100 µM (inactive) | > 100 | > 100 µM (inactive) | > 100 µM (inactive) | > 100 µM (inactive) | > 100 µM (inactive) | > 100 µM (inactive) | > 100 µM (inactive) | > 100 µM (inactive) | > 100 µM (inactive) | > 100 µM (inactive) | > 100 µM (inactive) | > 100 µM (inactive) | > 100 µM (inactive) | > 100 µM (inactive) | > 100 µM (inactive) | > 100 µM (inactive) | > 100 µM (inactive) | > 100 µM (inactive) | –
2 | O=[N+]([O-])c1ccc2oc(=N/c3ccccc3)/c(=N\c3ccccc3)[nH]c2c1 | > 100 µM (inactive) | > 100 | 59.8 µM (inactive) | 24.9 µM (inactive) | > 100 µM (inactive) | 75.9 µM (inactive) | 59.4 µM (inactive) | 41 µM (inactive) | 61.1 µM (inactive) | 51.1 µM (inactive) | > 100 µM (inactive) | 29.6 µM (inactive) | 35 µM (inactive) | 7.87 µM (inactive) | > 100 µM (inactive) | 57.4 µM (inactive) | 55.7 µM (inactive) | > 100 µM (inactive) | 75.3 µM (inactive) | –
3 | Cc1nc2ccc(NC3OC(CO)C(O)C(O)C3O)cc2c(=O)n1-c1ccccc1 (configuration not stated) | > 100 µM (inactive) and > 99.3 µM (inactive) | > 100 | – | > 100 µM (inactive) | > 100 µM (inactive) | 58.3 µM (inactive) | > 100 µM (inactive) | > 100 µM (inactive) | > 100 µM (inactive) | > 100 µM (inactive) | > 100 µM (inactive) | > 100 µM (inactive) | > 100 µM (inactive) | > 100 µM (inactive) | > 100 µM (inactive) | > 100 µM (inactive) | – | > 100 µM (inactive) | > 100 µM (inactive) | –
4 | CN1N(c2ccccc2)C(=O)C2=NC=C(C#N)C(=N)C21C (configuration not stated) | > 100 µM (inactive) | > 100 | > 100 µM (inactive) | > 100 µM (inactive) | > 100 µM (inactive) | > 100 µM (inactive) | > 100 µM (inactive) | > 100 µM (inactive) | > 100 µM (inactive) | > 100 µM (inactive) | > 100 µM (inactive) | > 100 µM (inactive) | – | > 100 µM (inactive) | > 100 µM (inactive) | > 100 µM (inactive) | > 100 µM (inactive) | > 100 µM (inactive) | > 100 µM (inactive) | > 100 µM (inactive)
5 | C=CC(C)(C)OC[C@@H]1NC(=O)CNC(=O)[C@@H]2CCCN2C(=O)[C@H](C(C)CC)NC(=O)[C@@H]2CSC(=N2)[C@H](CC(C)C)NC1=O (some centres not stated) (cyclo(GS(Allyl(1,1-Me2))[X53][Ile(3ξ)]P)) | 27.5 µM (inactive) | 58.1 | 80 µM (inactive) | > 100 µM (inactive) | 77.6 µM (inactive) | 32.6 µM (inactive) | > 100 µM (inactive) | > 100 µM (inactive) | 75 µM (inactive) | > 100 µM (inactive) | – | 37.6 µM (inactive) | > 100 µM (inactive) | > 100 µM (inactive) | > 100 µM (inactive) | 43.9 µM (inactive) | > 100 µM (inactive) | 26.4 µM (inactive) | 69.3 µM (inactive) | > 100 µM (inactive)
6 | CCCC(CCN)(CCN)[N+](=O)[O-] | > 100 µM (inactive) | > 100 | > 100 µM (inactive) | > 100 µM (inactive) | > 100 µM (inactive) | > 100 µM (inactive) | > 100 µM (inactive) | > 100 µM (inactive) | > 100 µM (inactive) | > 100 µM (inactive) | – | > 100 µM (inactive) | – | > 100 µM (inactive) | > 100 µM (inactive) | > 100 µM (inactive) | > 100 µM (inactive) | > 100 µM (inactive) | > 100 µM (inactive) | > 100 µM (inactive)
7 | COc1cc(C(c2c(O)c3ccccc3oc2=O)c2c(O)c3ccccc3oc2=O)cc(Br)c1O | 20.1 µM (inactive) | 17.7 | 18.4 µM (inactive) | 17.4 µM (inactive) | 17.4 µM (inactive) | 16.3 µM (inactive) | 15.9 µM (inactive) | 18.6 µM (inactive) | 15.7 µM (inactive) | 23 µM (inactive) | 21.6 µM (inactive) | – | 18.6 µM (inactive) | 17.8 µM (inactive) | 21.5 µM (inactive) | 22.2 µM (inactive) | 20.1 µM (inactive) | 20.3 µM (inactive) | 17.3 µM (inactive) | 16.8 µM (inactive)
8 | O=c1[nH]nc(-c2ccccc2)n1/N=C/c1ccccc1O | > 100 µM (inactive) | > 100 | > 100 µM (inactive) | 29.7 µM (inactive) | > 100 µM (inactive) | 47.8 µM (inactive) | 34.1 µM (inactive) | 35.5 µM (inactive) | > 100 µM (inactive) | > 100 µM (inactive) | – | > 100 µM (inactive) | – | 70 µM (inactive) | > 100 µM (inactive) | > 100 µM (inactive) | 22.9 µM (inactive) | > 100 µM (inactive) | 47.6 µM (inactive) | –
